Test results from ChEMBL document CHEMBL1201862, “PubChem BioAssay data set” (2004).
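Interpolation was linear, between the two tested concentrations surrounding the appropriate level; five concentrations were tested over 48 hours in 96-well plates. GI50 marks 50% less growth.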 The source made the active and inactive calls. Rule as the data show it: active = GI50 up to about 1.1 µM and inactive = higher.

Experiments:
Experiment in all cases: NCI anticancer screen, dose series, 48 h
OVCAR-4 = tested on: OVCAR-4
SF-295 = tested on: SF-295
HCT-15 = tested on: HCT-15
NCI/ADR-RES = tested on: NCI/ADR-RES
MCF7 = tested on: MCF7
SK-MEL-2 = tested on: SK-MEL-2
RPMI-8226 = tested on: RPMI-8226
SN12C = tested on: SN12C
NCI-H226 = tested on: NCI-H226
SW-620 = tested on: SW-620
U-251 = tested on: U-251
OVCAR-5 = tested on: OVCAR-5
SNB-19 = tested on: SNB-19
MDA-MB-435 = tested on: MDA-MB-435
UACC-62 = tested on: UACC-62
Hs-578T = tested on: Hs-578T
NCI-H460 = tested on: NCI-H460
MDA-MB-231 = tested on: MDA-MB-231
SK-MEL-28 = tested on: SK-MEL-28
HCC 2998 = tested on: HCC 2998

SMILES | GI50 (OVCAR-4) | GI50 (SF-295) | GI50 (HCT-15) [µM] | GI50 (NCI/ADR-RES) | GI50 (MCF7) | GI50 (SK-MEL-2) | GI50 (RPMI-8226) | GI50 (SN12C) | GI50 (NCI-H226) | GI50 (SW-620) | GI50 (U-251) | GI50 (OVCAR-5) | GI50 (SNB-19) | GI50 (MDA-MB-435) | GI50 (UACC-62) | GI50 (Hs-578T) | GI50 (NCI-H460) | GI50 (MDA-MB-231) | GI50 (SK-MEL-28) | GI50 (HCC 2998)
CC(C)(C)OC(=O)N1C(c2cccnc2)=CC[C@H]2C3CC=C(c4cccnc4)[C@@]3(C)CC[C@@H]21 (stereo partly specified) | 5.09 µM (inactive) | 3.13 µM (inactive) | 3.52 | 8.45 µM (inactive) | 2.81 µM (inactive) | 2.95 µM (inactive) | 1.82 µM (inactive) | 3.67 µM (inactive) | 3.56 µM (inactive) | 3.83 µM (inactive) | 3.36 µM (inactive) | 11.9 µM (inactive) | 4.83 µM (inactive) | 2.13 µM (inactive) | 2.61 µM (inactive) | 5.64 µM (inactive) | 3.51 µM (inactive) | – | – | –
CC(C)=CC(C)C(C(O)CCC1(c2ccoc2)OCCO1)S(=O)(=O)c1ccccc1 (stereo unspecified) | > 100 µM (inactive) | > 100 µM (inactive) | > 100 | 91.6 µM (inactive) | > 100 µM (inactive) | > 100 µM (inactive) | > 100 µM (inactive) | > 100 µM (inactive) | > 100 µM (inactive) | > 100 µM (inactive) | > 100 µM (inactive) | > 100 µM (inactive) | > 100 µM (inactive) | > 100 µM (inactive) | – | – | > 100 µM (inactive) | > 100 µM (inactive) | > 100 µM (inactive) | > 100 µM (inactive)
O=C1CC(c2ccccc2)C2(C(=O)NC(=S)NC2=O)C(c2ccccc2)C1 (stereo unspecified) | > 75 µM (inactive) | > 75 µM (inactive) | > 75 | > 75 µM (inactive) | > 75 µM (inactive) | > 75 µM (inactive) | 38.7 µM (inactive) | > 75 µM (inactive) | > 75 µM (inactive) | > 75 µM (inactive) | > 75 µM (inactive) | > 75 µM (inactive) | > 75 µM (inactive) | 55.8 µM (inactive) | > 75 µM (inactive) | – | > 75 µM (inactive) | > 75 µM (inactive) | > 75 µM (inactive) | > 75 µM (inactive)
CN1CCC2(CC1)/C(=N/C1CCCCC1)NC(=O)N2c1ccccc1 | – | > 100 µM (inactive) | > 100 | > 100 µM (inactive) | > 100 µM (inactive) | – | > 100 µM (inactive) | > 100 µM (inactive) | > 100 µM (inactive) | > 100 µM (inactive) | > 100 µM (inactive) | > 100 µM (inactive) | > 100 µM (inactive) | – | > 100 µM (inactive) | > 100 µM (inactive) | > 100 µM (inactive) | > 100 µM (inactive) | > 100 µM (inactive) | > 100 µM (inactive)
CC1C(OC2O[C@@H]3O[C@@]4(C)CC[C@H]5[C@H](C)CC[C@@H](C2C)[C@@]35O4)O[C@@H]2O[C@@]3(C)CC[C@H]4[C@H](C)CC[C@@H]1[C@@]24O3 (stereo partly specified) | > 50 µM (inactive) | > 50 µM (inactive) | > 50 | – | > 50 µM (inactive) | > 50 µM (inactive) | > 50 µM (inactive) | > 50 µM (inactive) | > 50 µM (inactive) | > 50 µM (inactive) | > 50 µM (inactive) | > 50 µM (inactive) | > 50 µM (inactive) | > 50 µM (inactive) | > 50 µM (inactive) | > 50 µM (inactive) | > 50 µM (inactive) | > 50 µM (inactive) | > 50 µM (inactive) | > 50 µM (inactive)
CN(C)CCCNC(=O)c1c(-c2cccnc2)cnc2ccccc12 | > 100 µM (inactive) | > 100 µM (inactive) | > 100 | > 100 µM (inactive) | > 100 µM (inactive) | > 100 µM (inactive) | > 100 µM (inactive) | > 100 µM (inactive) | > 100 µM (inactive) | > 100 µM (inactive) | > 100 µM (inactive) | > 100 µM (inactive) | > 100 µM (inactive) | – | > 100 µM (inactive) | – | > 100 µM (inactive) | – | > 100 µM (inactive) | > 100 µM (inactive)
O=C1C2c3[nH]c4ccccc4c3C3CCCCCC3C2C(=O)N1c1ccccc1 (stereo unspecified) | 3.09 µM (inactive) | 11 µM (inactive) | > 47 | – | – | 22.9 µM (inactive) | > 100 µM (inactive) | 9.71 µM (inactive) | 21.3 µM (inactive) | 24.8 µM (inactive) | 18.7 µM (inactive) | > 100 µM (inactive) | 25.8 µM (inactive) | – | > 63.7 µM (inactive) | – | 11.3 µM (inactive) | – | > 59.8 µM (inactive) | > 56.1 µM (inactive)
CCCC(=O)Nc1cc(/C=C/C(=O)N2CC(CCl)c3c2cc([N+](=O)[O-])c2ccccc32)n(C)c1 (stereo unspecified) | > 100 µM (inactive) | > 52.1 µM (inactive) | > 4.65 | 8.93 µM (inactive) | 13.8 µM (inactive) | > 100 µM (inactive) | 0.579 µM (active) | > 100 µM (inactive) | > 100 µM (inactive) | > 100 µM (inactive) | > 63.5 µM (inactive) | > 100 µM (inactive) | > 100 µM (inactive) | > 100 µM (inactive) | 8.38 µM (inactive) | – | 7.57 µM (inactive) | > 100 µM (inactive) | > 100 µM (inactive) | 14.5 µM (inactive)
